{
  "source": "patent US7531651B2",
  "about": "“Benzenesulphonate salt of a morpholine urea derivative for use as a CCR-3 antagonist in the treatment of inflammatory conditions” (Glaxo Group Limited, priority 2002, dated 2009)",
  "key": {"[1]": {"target": "T1, CCR-3 (Homo sapiens, UniProt P51677)", "T1 construct": "expressed in transfected cells", "T1 sequence (P51677 1-355)": "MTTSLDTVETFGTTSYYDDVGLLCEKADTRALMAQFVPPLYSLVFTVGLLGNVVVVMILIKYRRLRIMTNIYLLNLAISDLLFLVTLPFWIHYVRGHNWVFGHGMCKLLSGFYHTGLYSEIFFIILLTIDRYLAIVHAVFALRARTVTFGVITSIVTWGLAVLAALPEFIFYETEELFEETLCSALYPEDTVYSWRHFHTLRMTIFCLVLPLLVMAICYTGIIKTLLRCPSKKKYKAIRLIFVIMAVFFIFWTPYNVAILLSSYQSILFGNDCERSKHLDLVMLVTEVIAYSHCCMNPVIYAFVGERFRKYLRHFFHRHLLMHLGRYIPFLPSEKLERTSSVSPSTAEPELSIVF", "assay": "CCR-3 competition binding SPA ([125I]eotaxin)", "conditions": "membranes from K562 cells stably expressing CCR-3; 20 pM [125I]eotaxin; read-out: pIC50 (inhibition of [125I]eotaxin binding) (converted)", "description": "A CCR-3 competition binding SPA (scintillation proximity assay) was used to assess the affinity of novel compounds for CCR-3. Membranes prepared from K562 cells stably expressing CCR-3 (2.5 μg/well) were mixed with 0.25 mg/well wheat-germ agglutinin SPA beads (Amersham) and incubated in binding buffer (HEPES 50 mM, CaCl2 1 mM, MgCl2 5 mM, 0.5% BSA) at 4° C. for 1.5 hr. Following incubation, 20 pM of [^125I] eotaxin (Amersham) and increasing concentrations of compound (1 pM to 30 μM) were added and incubated in a 96 well plate for 2 hr at 22° C. then counted on a Microbeta plate counter. The total assay volume was 100 μl. Competition binding data were analysed by fitting the data with a four parameter logistic equation. Data are presented as the mean pIC50 values (negative logarithm of the concentration of compound which inhibits [^125I]eotaxin binding by 50%) from at least two experiments."}, "[2]": {"target": "eosinophils", "assay": "Eosinophil chemotaxis assay (eotaxin-induced)", "format": "cell-based", "conditions": "human peripheral blood eosinophils; agonist eotaxin at EC80", "experimental": "(b) Eosinophil Chemotaxis Assay.\nCompounds were evaluated for their inhibitory effect on eosinophil chemotaxis. Eosinophils were purified from human peripheral blood by standard CD16 cell depletion using a Miltenyi cell separation column and a magnetic Super Macs magnet as previously described (Motegi & Kita, 1998; J. Immunology. 161:4340-6). Cells were re-suspended in RPMI 1640/10% FCS solution and incubated with calcein-AM (Molecular Probes) at 37° C. for 30 mins. Following incubation, the eosinophils were centrifuged at 400 g for 5 min and re-suspended in RPMI/FCS at 2.2 million/ml. Cells were then incubated in the presence of increasing concentration of compounds (1 μM to 30 μM) at 37° C. for 30 mins. For control responses cells were incubated with RPMI/FCS only. The agonist eotaxin (either a concentration response curve or for the functional inhibition curves an EC80 concentration) was added to the lower chamber of a 96 well chemotaxis plate (5 μm filter: Receptor Technologies). […] Cells remaining on top of the chemotaxis filter were removed and the number of eosinophils which had migrated were quantified by reading the plate on a fluorescent plate reader. Inhibition curves for the effect of compounds on eosinophil chemotaxis were analysed by fitting the data with a four parameter logistic equation. […]"}, "[3]": {"assay": "Hygroscopicity", "format": "physicochemical"}, "[4]": {"assay": "Solubility in water versus free base"}, "[5]": {"assay": "Stability in aqueous solution (impurity profiles)", "conditions": "presence and absence of light, 8 days, pH range 2-10", "excerpt": "Thus a convenient method for determining the stability of the compounds of the invention in aqueous solution involves determining the impurity profiles of an aqueous solution of the test compound at known conditions of temperature and over known periods of time."}, "[6]": {"assay": "Solid form storage stability tests (temperature/humidity/light)", "excerpt": "The stability of the compound of the invention may be determined using conventional quantitative analytical methods: For example the stability of the compound in the solid form may be determined by using accelerated stability tests such as differential scanning calorimetry (DSC), thermogravimetric analysis (TGA) and isothermal testing at elevated temperatures including conventional storage tests wherein the test compound is stored under controlled conditions of temperature and humidity over known periods of time. Quantitative analysis of the test compounds, against appropriate reference standards before, during and after the storage period allows the stability of the test compound to be determined."}},
  "data": [
    {"smiles": "NC(=O)c1ccc(CNC(=O)NC[C@H]2CN(Cc3ccc(Cl)c(Cl)c3)CCO2)cc1.O.O.O=S(=O)(O)c1ccccc1", "note": "[compound of the invention, 4-({[({[(2S)-4-(3,4-dichlorobenzyl)morpholin-2-yl]methyl}amino)carbonyl]amino}methyl)benzamide benzenesulfonate dihydrate]", "values": [
      {"measurement": "IC50", "setting": "[1]", "value": "< 10", "unit": "µM"},
      {"measurement": "fpKi (functional pKi)", "setting": "[2]", "value": "greater than 5"},
      {"measurement": "hygroscopicity", "setting": "[3]", "value": "non-hygroscopic"},
      {"measurement": "solubility in water compared with the free base", "setting": "[4]", "value": "more soluble in water than the corresponding free base"},
      {"measurement": "aqueous stability", "setting": "[5]", "value": "good aqueous stability"},
      {"measurement": "degradation on storage (solid form)", "setting": "[6]; 50° C./ambient conditions, 25 days", "value": "no significant degradation"},
      {"measurement": "degradation on storage (solid form)", "setting": "[6]; light cabinet, ambient conditions, 14 days", "value": "no significant degradation"}
    ]}
  ]
}
